Where “and” joins values, the source holds several entries; their conditions need not be identical. Equal entries are not always repeated.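 Results reflect a 48-hour exposure of cells in 96-well plates to compound at five concentrations. Here, GI50 denotes the concentration required for 50% inhibition of growth. TGI: concentration producing complete growth inhibition.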
Assays:
Test in all cases: inhibition of tumour cell growth, NCI panel, 48 h
[1] = test system: NCI-H226 lung
[2] = test system: NCI-H23 lung
[3] = test system: 786-0 renal
[4] = test system: A498 renal
[5] = test system: OVCAR-3 ovarian
[6] = test system: IGROV1 ovarian
[7] = test system: RXF 393 renal
[8] = test system: ACHN renal
[9] = test system: NCI-H522 lung
[10] = test system: SW-620 colon

CC(=O)OC1CC[C@@]2(C)C(CC(OC3OC(CO)C(O)C(O)C3O)[C@]3(C)C2CCC24CC23CC[C@H]4C(C)CC(O)[C@@H](O)C(C)(C)O)C1(C)C (stereo partly drawn)
TGI [1]: 48.5 µM | TGI [2]: > 50 µM | TGI [3]: 30.7 µM | TGI [4]: 45.3 µM | TGI [5]: 48.7 µM | TGI [6]: 22.1 µM | TGI [7]: 30.1 µM | TGI [8]: > 50 µM | TGI [9]: 16.2 µM | TGI [10]: 45.1 µM

COC1=C(NC(C)=O)C(=O)c2nc3n(c2C1=O)CCC3
TGI [1]: 49.4 µM | TGI [2]: 39 µM | TGI [3]: 36.4 µM | TGI [4]: 50.2 µM | TGI [5]: 30.3 µM | TGI [6]: 35.6 µM | TGI [7]: 31.7 µM | TGI [8]: 40.7 µM | TGI [9]: 40.1 µM | TGI [10]: 42.4 µM

CCCCc1c2c(nc3c1CCc1cc(C=O)c(N)nc1-3)/C(=C/c1ccccc1)CCC2
TGI [1]: > 100 µM | TGI [2]: > 100 µM | TGI [3]: > 100 µM | TGI [4]: 47.5 µM | TGI [5]: > 100 µM | TGI [6]: > 100 µM | TGI [7]: > 100 µM | TGI [8]: > 100 µM | TGI [9]: > 100 µM | TGI [10]: > 100 µM

Cc1cc(CC(O)(C(F)(F)F)C(F)(F)F)cc(CC(O)(C(F)(F)F)C(F)(F)F)n1
TGI [1]: 8.13 µM | TGI [2]: 5.31 µM | TGI [3]: 6.66 µM | TGI [4]: 7.87 µM | TGI [5]: 2.76 µM | TGI [6]: 11.2 µM | TGI [7]: 14.9 µM | TGI [8]: 8.29 µM | TGI [9]: 6.35 µM | TGI [10]: > 100 µM

O=C(O)CSc1ccn(Cc2ccccc2)c1
TGI [1]: > 100 µM | TGI [2]: > 100 µM | TGI [3]: > 100 µM | TGI [4]: > 100 µM | TGI [5]: > 100 µM | TGI [6]: > 100 µM | TGI [7]: > 100 µM | TGI [8]: > 100 µM | TGI [9]: > 100 µM | TGI [10]: > 100 µM

O=C(NCCc1ccccc1)C(c1csc2ccccc12)N(C(=O)CCl)c1ccc(-c2cnco2)cc1 (stereo not drawn)
GI50 [1]: 1.07 µM | TGI [1]: 3.43 µM | GI50 [2]: 0.0209 µM | TGI [2]: 0.0508 µM | GI50 [3]: 0.0197 µM | TGI [3]: 0.038 µM | GI50 [4]: 0.62 µM | TGI [4]: 1.48 µM | GI50 [5]: 0.156 µM | TGI [5]: 0.828 µM | GI50 [6]: 0.161 µM | TGI [6]: 0.331 µM | GI50 [7]: 0.145 µM | TGI [7]: 0.587 µM | GI50 [8]: 0.139 µM | TGI [8]: 0.537 µM | GI50 [9]: 0.0134 µM | TGI [9]: 0.0295 µM | GI50 [10]: 0.391 µM | TGI [10]: 1.29 µM

COc1ccc(C2CC(c3cccc(Nc4ccnc5cc(Cl)ccc45)c3)=NN2c2ccccc2)cc1 (stereo not drawn)
GI50 [1]: 11.3 µM | TGI [1]: 63.8 µM | GI50 [2]: 8.78 µM | TGI [2]: 59.7 µM | GI50 [3]: 3.95 µM | TGI [3]: > 100 µM | GI50 [4]: 2.87 µM | TGI [4]: 81.2 µM | GI50 [5]: 3.2 µM | TGI [5]: > 100 µM | GI50 [6]: 11.6 µM | TGI [6]: > 100 µM | GI50 [7]: 8.91 µM | TGI [7]: 49.7 µM | GI50 [8]: 3.5 µM | TGI [8]: 33.2 µM | GI50 [9]: 0.952 µM | TGI [9]: 13.8 µM | GI50 [10]: 0.277 µM | TGI [10]: 14.4 µM

CCCCC#Cc1c(I)n(C2OC(CO[Si](C)(C)C(C)(C)C)C3OC(C)(C)OC32)c(=O)[nH]c1=O (stereo not drawn)
GI50 [1]: 12.7 µM | TGI [1]: 25.6 µM | GI50 [2]: 13 µM | TGI [2]: 31.3 µM | GI50 [3]: 15.4 µM | TGI [3]: 29 µM | GI50 [4]: 13.3 µM | TGI [4]: 26 µM | GI50 [5]: 1.53 µM | TGI [5]: 2.86 µM | GI50 [6]: 3.32 µM | TGI [6]: 15.4 µM | GI50 [7]: 1.5 µM | TGI [7]: 5.46 µM | GI50 [8]: 2.29 µM | TGI [8]: 7.52 µM | GI50 [9]: 0.534 µM | TGI [9]: 1.95 µM | GI50 [10]: 1.8 µM | TGI [10]: 4.15 µM

COc1ccc(-c2cc(-c3ccco3)c(C#N)c(=O)n2C2OC(OC(=O)c3ccccc3)C(OC(=O)c3ccccc3)C2OC(=O)c2ccccc2)cc1 (stereo not drawn)
TGI [1]: > 100 µM | TGI [2]: > 100 µM | TGI [3]: > 100 µM | TGI [4]: > 100 µM | TGI [5]: > 100 µM | TGI [6]: > 100 µM | TGI [7]: 63.7 µM | TGI [8]: > 100 µM | TGI [9]: > 100 µM | TGI [10]: > 100 µM

N=C(N)c1ccc(-c2ccc(-c3ccco3)o2)cc1
GI50 [1]: 14.4 µM | TGI [1]: 33.1 µM | GI50 [2]: 11 µM | TGI [2]: 26.6 µM | GI50 [3]: 3.93 µM | TGI [3]: 17.1 µM | GI50 [4]: 6.58 µM | TGI [4]: 20 µM | GI50 [5]: 9.77 µM | TGI [5]: 22.1 µM | GI50 [6]: 4.38 µM | TGI [6]: 16.7 µM | GI50 [7]: 4.68 µM | TGI [7]: 18.4 µM | GI50 [8]: 4.24 µM | TGI [8]: 15.3 µM | GI50 [9]: 3.73 µM | TGI [9]: 14.6 µM | GI50 [10]: 1.92 µM | TGI [10]: 4.09 µM

Oc1ccc(Br)cc1CN1CCN(Cc2ccc(Cl)cc2)CC1
GI50 [1]: 20.8 µM | TGI [1]: > 100 µM | GI50 [2]: 16.5 µM | TGI [2]: > 100 µM | GI50 [3]: 21.2 µM | TGI [3]: 80.9 µM | GI50 [4]: 0.4 µM | TGI [4]: 45 µM | GI50 [5]: 26.3 µM | TGI [5]: > 100 µM | GI50 [6]: 44.3 µM | TGI [6]: > 100 µM | GI50 [7]: 17.3 µM | TGI [7]: 80 µM | GI50 [8]: 31.7 µM | TGI [8]: > 100 µM | GI50 [9]: 13.3 µM | TGI [9]: 39.2 µM | GI50 [10]: 22.2 µM | TGI [10]: 92.5 µM

O=C(CCCCCCCCC(=O)OCCCn1cc(C(=O)NC(=O)OCc2ccccc2)c(=O)[nH]c1=O)OCCCn1cc(C(=O)NC(=O)OCc2ccccc2)c(=O)[nH]c1=O
TGI [1]: > 100 µM | TGI [2]: > 100 µM | TGI [3]: > 100 µM | TGI [4]: > 100 µM | TGI [5]: > 100 µM | TGI [6]: > 100 µM | TGI [7]: > 100 µM | TGI [8]: > 100 µM | TGI [9]: > 100 µM | TGI [10]: > 100 µM

COc1cc(C2C3=C(COC3=O)N(CCO)c3cc4c(cc32)OCCO4)cc(OC)c1O (stereo not drawn)
GI50 [1]: > 19.5 µM | TGI [1]: > 50 µM | GI50 [2]: 2.46 µM | TGI [2]: > 50 µM | GI50 [3]: 7.03 µM | TGI [3]: > 50 µM | GI50 [4]: 1.41 µM | TGI [4]: > 23.4 µM | GI50 [5]: 0.947 µM | TGI [5]: 2.29 µM | GI50 [6]: 1.17 µM | TGI [6]: > 16.5 µM | GI50 [7]: 0.971 µM | TGI [7]: > 50 µM | GI50 [8]: 5.94 µM | TGI [8]: > 50 µM | GI50 [9]: 0.182 µM | TGI [9]: 2.8 µM | GI50 [10]: 1.83 µM | TGI [10]: > 50 µM

C[N+](C)(C)CC(=O)NC(=O)N/N=C\C(CC#N)CN(Cc1ccccc1)Cc1ccccc1 (stereo not drawn)
TGI [1]: > 100 µM | TGI [2]: > 100 µM | TGI [3]: > 100 µM | TGI [4]: > 100 µM | TGI [5]: > 100 µM | TGI [6]: > 100 µM | TGI [7]: > 100 µM | TGI [8]: > 100 µM | TGI [9]: > 100 µM | TGI [10]: > 100 µM

CC(C)=CCNc1ncnc2c1ncn2C1OC(COP(=O)(O)O)C(O)C1O (stereo not drawn)
GI50 [1]: 4.7 µM | TGI [1]: 33.9 µM | GI50 [2]: 6.68 µM | TGI [2]: > 100 µM | GI50 [3]: 5.82 µM | TGI [3]: > 79.6 µM | GI50 [4]: 1.53 µM | TGI [4]: 3.3 µM | GI50 [5]: 2.13 µM | TGI [5]: 4.41 µM | GI50 [6]: 11 µM | TGI [6]: > 100 µM | GI50 [7]: 2.38 µM | TGI [7]: 8.98 µM | GI50 [8]: 3.08 µM | TGI [8]: > 100 µM | GI50 [9]: 4.8 µM | TGI [9]: 89.4 µM | GI50 [10]: 3.89 µM | TGI [10]: > 100 µM

Cc1cc(C)c2nc(Nc3nc(C)c(C)c(=O)[nH]3)nc(C)c2c1
GI50 [1]: 2.93 µM | TGI [1]: 15.4 µM | GI50 [2]: 3.44 µM | TGI [2]: 20.4 µM | GI50 [3]: 2.4 µM | TGI [3]: 12.3 µM | GI50 [4]: 2.02 µM | TGI [4]: 5.54 µM | GI50 [5]: 3.59 µM | TGI [5]: 13.1 µM | GI50 [6]: 2.85 µM | TGI [6]: 12.8 µM | GI50 [7]: 2.39 µM | TGI [7]: 7.55 µM | GI50 [8]: 3.06 µM | TGI [8]: 11.6 µM | GI50 [9]: 1.63 µM | TGI [9]: 6.33 µM | GI50 [10]: 3.12 µM | TGI [10]: 15.5 µM

NS(=O)(=O)OC[C@H]1O[C@@H](n2cnc3c(N[C@H]4CCc5ccccc54)ncnc32)[C@H](O)[C@@H]1O
GI50 [1]: 0.0285 µM | TGI [1]: 0.0863 µM | GI50 [2]: 0.185 µM | TGI [2]: 1.26 µM | GI50 [3]: 0.0799 µM | TGI [3]: 0.373 µM | GI50 [4]: 0.0288 µM | TGI [4]: 0.124 µM | GI50 [5]: 0.0409 µM | TGI [5]: 0.145 µM | GI50 [6]: 0.174 µM | TGI [6]: 1 µM | GI50 [7]: 0.258 µM | TGI [7]: 0.506 µM | GI50 [8]: 0.167 µM | TGI [8]: 0.57 µM | GI50 [9]: 0.0271 µM | TGI [9]: 0.192 µM | GI50 [10]: 0.245 µM | TGI [10]: 5.82 µM

O=c1cc(N2CCOCC2)oc2c(-c3ccccc3)cccc12
TGI [1]: 50 µM and 50.6 µM | GI50 [2]: 9.08 µM | TGI [2]: > 100 µM | GI50 [3]: 3.13 µM | TGI [3]: > 37.9 µM and 46.7 µM | GI50 [4]: 1.53 µM | TGI [4]: 7.54 µM and 13.9 µM | GI50 [5]: 4.48 µM | TGI [5]: 40.3 µM and 43 µM | GI50 [6]: 3.65 µM | TGI [6]: > 34.4 µM and 12.3 µM | TGI [7]: 13.4 µM and 13.6 µM | GI50 [8]: 4.25 µM | TGI [8]: > 100 µM | GI50 [9]: 4.96 µM | TGI [9]: 23.2 µM and 19.3 µM | GI50 [10]: 15.5 µM | TGI [10]: > 100 µM
